According to patent US20220117958A1, “COMPOSITIONS AND METHODS FOR INHIBITING ACSS2” (THE TRUSTEES OF THE UNIVERSITY OF PENNSYLVANIA, priority 2018, published 2022):
Entries after “also recorded” stand apart in the source; their conditions may differ.

Columns and labels:
[1] = system: mice; experiment: Fear reconsolidation behavioral study; type: in vivo; settings: 2 mg/kg immediately before and 30 min after each of 4 dosed cue-recall sessions, versus DMSO
Method: 3 CS-US pairings were performed: tone is 30 seconds long co-terminating with 2 second, 1 mA shock. No drug or vehicle was administered.
Subsequent to the acquisition, and following the schedule provided, above, recall and reconsolidation sessions ensued. The cage was altered in context (floor board, walls, vanilla scent). The same paradigm as acquisition was used for reconsolidation and recall exposures but no shock was delivered. The following procedure was followed: (1) 2 min habituation to box; (2) 30 sec tones; (3) 1 min it is.
Injections of ADG-205c or DMSO at dosage of 2 mg/kg are administered at the following time points: Immediately before reconsolidation/recall; and then 30 minutes following reconsolidation/recall.

[2] = system: primary hippocampal neurons; experiment: RNA-seq, acetate-induced transcription in primary hippocampal neurons; type: cell-based, mouse
Method: Alcohol and acetate have pleiotropic effects on brain circuitry and metabolism. Utilizing isolated mouse primary hippocampal neurons, the transcriptional response to supraphysiological levels of acetate (cells were cultured for one week after isolation and subsequently treated with 5 mM acetate for 24 hours) that mimics exogenous acetate influx during alcohol intake was investigated. Further, to determine the specific role of ACSS2 in transcriptional responses to acetate, a highly specific small molecule inhibitor of ACSS2 (ACSS2i ADG-205: C20H18N4O2S2, FIG. 15A) was employed.

[3] = system: Male Sprague-Dawley rat; experiment: Fear conditioning in rats (cued memory test); type: in vivo; settings: IP, dosed 5 min before and 30 min after acquisition, versus vehicle
Method: A. Fear Conditioning in Rats
Species: Rat; Strain: Male Sprague-Dawley (CD-SD strain 001; Charles River Labs); Age or weight: 7 to 9 weeks, approximately 250 grams
Formulation(s): 5% DMSO in 0.5% methylcellulose
Dose Levels: 4 mg/kg total; distributed into 2 injections of 2 mg/kg
Dose Frequency: Twice; once prior to shock cycle and once right after last shock • 1st Injection—5 minutes before being placed into fear conditioning chamber • 2nd Injection—30 minutes after coming out of fear conditioning chamber (alternatively 30 min after last shock) • Study duration: 3 days
Rats are handled for 3 consecutive days for ˜2 minutes each day prior to the experiment. […]
Day 1—Conditioning (Acquisition)—animals are placed in the chambers and presented a training session (Context A). […] Freezing behavior (immobility) is recorded in 10-second intervals during the session. Percent baseline freezing behavior is determined in the 3-minute habituation period. […]
The rats were provided 3 minutes habituation. […] Data is recorded in 10 see epochs. […]
Animals are placed in the chambers with a different (lemon) scent and black Plexiglas floor over the grid floor (Context B). Freezing behavior in response to an altered context is recorded for 2 minutes in 10-second intervals. Then the 80 dB tone is presented for 8 minutes and immobility is recorded in 10-second intervals to measure freezing response to the tone cue.

COCCNC(=O)Nc1ccc2nc(-c3cccs3)c(-c3cccs3)nc2c1 [ADG-205c, 1-(2,3-di(thiophen-2-yl)quinoxalin-6-yl)-3-(2-methoxyethyl)urea]
Fear response (freezing) after reconsolidation sessions [1]: observable reduced fear response
Number of the 3613 acetate-induced genes that fail to be upregulated in the presence of inhibitor ([2]; 5 mM acetate, 24 hours, RNA-seq): 2107 genes
Slc17a7 induction upon acetate treatment ([2]; acetate, ACSS2 inhibited): induction was diminished
Acetate induction of ACSS2 target genes with alcohol-induced H3K9ac ([2]; hippocampal neurons ex vivo, acetate): blocks this gene induction
Acetate induction of ACSS2 target genes with alcohol-induced H3K27ac ([2]; hippocampal neurons ex vivo, acetate, listed as ACSS2i): failed to be induced; also recorded: blocks this gene induction
Regulation of acetate-induced genes by inhibitor in the absence of acetate ([2]; no acetate): not regulated
Freezing during cue presentation (cued memory test) ([3]; listed as EPV018): significant reduced freezing
Freezing during cue presentation (cued memory test) ([3]; listed as EPV-018): statistically significant reduction
